In patent publication US12435060B2, “Acylamino bridged heterocyclic compound, and composition and application thereof” (BEIJING SCITECH-MQ PHARMACEUTICALS LIMITED, priority 2019, dated 2025):

Tested on: HT29 cells
Test: Inhibition of cell necrosis (CCK8 method), induced programmed necrosis of HT29 cells
Format: cell-based
Conditions: Homo sapiens, HT-29; rescue from necrosis induced by TNF-α 20 ng/mL, AT-406 1 μM, Z-VAD-FMK 20 μM; 16-20 hours; CCK-8, OD 450 nm
Procedure, shortened: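 Rescue from programmed necrosis was scored by CCK-8 absorbance at 450 nm after 16-20 h of TNF-α (20 ng/mL), AT-406 (1 μM) and Z-VAD-FMK (20 μM) at 37 °C, 5% CO2. HT29 cells had received compound 30 min earlier across nine 4-fold dilutions (top 25000 nM final). IC50 came from % inhibition relative to uninduced and induced-only wells.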

Row | SMILES | IC50
1 | Cc1ccc(OCCCC(C)(C)O)cc1-c1ccnc(NC(=O)c2nnc(CCc3ccccc3)[nH]2)c1 [Example 182, N-(4-(5-((4-hydroxy-4-methylpentyl)oxy)-2-methylphenyl)pyridin-2-yl)-5-phenethyl-4H-1,2,4-triazole-3-carboxamide] | 100 to 1000 nM
2 | Cc1ccc(OCCCC(C)(C)O)cc1-c1ccnc(NC(=O)c2nnc(Cc3ccccc3F)[nH]2)c1 [Example 183, 5-(2-fluorobenzyl)-N-(4-(5-((4-hydroxy-4-methylpentyl)oxy)-2-methylphenyl)pyridin-2-yl)-4H-1,2,4-triazole-3-carboxamide] | ≤ 100 nM
3 | Cc1ccc(OCCCC(C)(C)O)cc1-c1ccnc(NC(=O)c2nnc(Cc3cccc(F)c3)[nH]2)c1 [Example 184, 5-(3-fluorobenzyl)-N-(4-(5-((4-hydroxy-4-methylpentyl)oxy)-2-methylphenyl)pyridin-2-yl)-4H-1,2,4-triazole-3-carboxamide] | ≤ 100 nM
4 | Cc1ccc(OCCCC(C)(C)O)cc1-c1ccnc(NC(=O)c2nnc(Cc3cccc(Cl)c3)[nH]2)c1 [Example 185, 5-(3-chlorobenzyl)-N-(4-(5-((4-hydroxy-4-methylpentyl)oxy)-2-methylphenyl)pyridin-2-yl)-4H-1,2,4-triazole-3-carboxamide] | ≤ 100 nM
5 | COc1cccc(Cc2nnc(C(=O)Nc3cc(-c4cc(OCCCC(C)(C)O)ccc4C)ccn3)[nH]2)c1 [Example 186, 5-(3-methoxybenzyl)-N-(4-(5-((4-hydroxy-4-methylpentyl)oxy)-2-methylphenyl)pyridin-2-yl)-4H-1,2,4-triazole-3-carboxamide] | 100 to 1000 nM
6 | Cc1ccc(OCCCC(C)(C)O)cc1-c1ccnc(NC(=O)c2nnc(Cc3cccc(C#N)c3)[nH]2)c1 [Example 187, 5-(3-cyanobenzyl)-N-(4-(5-((4-hydroxy-4-methylpentyl)oxy)-2-methylphenyl)pyridin-2-yl)-4H-1,2,4-triazole-3-carboxamide] | ≤ 100 nM
7 | Cc1ccc(OCCCC(C)(C)O)cc1-c1ccnc(NC(=O)c2nnc(Cc3ccc(F)cc3)[nH]2)c1 [Example 188, 5-(4-fluorobenzyl)-N-(4-(5-((4-hydroxy-4-methylpentyl)oxy)-2-methylphenyl)pyridin-2-yl)-4H-1,2,4-triazole-3-carboxamide] | ≤ 100 nM
8 | Cc1ccc(OCCCC(C)(C)O)cc1-c1ccnc(NC(=O)c2nnc(Cc3ccc(Cl)cc3)[nH]2)c1 [Example 189, 5-(4-chlorobenzyl)-N-(4-(5-((4-hydroxy-4-methylpentyl)oxy)-2-methylphenyl)pyridin-2-yl)-4H-1,2,4-triazole-3-carboxamide] | ≤ 100 nM
9 | COc1ccc(Cc2nnc(C(=O)Nc3cc(-c4cc(OCCCC(C)(C)O)ccc4C)ccn3)[nH]2)cc1 [Example 190, 5-(4-methoxybenzyl)-N-(4-(5-((4-hydroxy-4-methylpentyl)oxy)-2-methylphenyl)pyridin-2-yl)-4H-1,2,4-triazole-3-carboxamide] | 100 to 1000 nM
10 | Cc1ccc(OCCCC(C)(C)O)cc1-c1ccnc(NC(=O)c2nnc(Cc3ccc(C#N)cc3)[nH]2)c1 [Example 191, 5-(4-cyanobenzyl)-N-(4-(5-((4-hydroxy-4-methylpentyl)oxy)-2-methylphenyl)pyridin-2-yl)-4H-1,2,4-triazole-3-carboxamide] | 100 to 1000 nM
11 | Cc1ccc(OCCCC(C)(C)O)cc1-c1ccnc(NC(=O)c2nnc(Cc3ccc(F)c(F)c3)[nH]2)c1 [Example 192, 5-(3,4-difluorobenzyl)-N-(4-(5-((4-hydroxy-4-methylpentyl)oxy)-2-methylphenyl)pyridin-2-yl)-4H-1,2,4-triazole-3-carboxamide] | ≤ 100 nM
12 | CC(C)(O)CCCOc1ccc(C#N)c(-c2ccnc(NC(=O)c3nnc(Cc4ccccc4)[nH]3)c2)c1 [Example 193, 5-benzyl-N-(4-(2-cyano-5-((4-hydroxy-4-methylpentyl)oxy)phenyl)pyridin-2-yl)-4H-1,2,4-triazole-3-carboxamide] | ≤ 100 nM
13 | CC(C)(O)CCCOc1ccc(C(F)(F)F)c(-c2ccnc(NC(=O)c3nnc(Cc4ccccc4)[nH]3)c2)c1 [Example 194, 5-benzyl-N-(4-(5-((4-hydroxy-4-methylpentyl)oxy)-2-(trifluoromethyl)phenyl)pyridin-2-yl)-4H-1,2,4-triazole-3-carboxamide] | ≤ 100 nM
14 | CC(C)(C)OCCOc1ccc(C=O)c(-c2ccnc(NC(=O)c3nnc(Cc4ccccc4)[nH]3)c2)c1 [Example 195, 5-benzyl-N-(4-(5-(2-(tert-butoxy)ethoxy)-2-formylphenyl)pyridin-2-yl)-4H-1,2,4-triazole-3-carboxamide] | ≤ 100 nM
15 | COc1ccc(C)c(-c2cncc(NC(=O)c3nnc(Cc4ccccc4)[nH]3)c2)c1 [Example 196, 5-benzyl-N-(5-(5-methoxy-2-methylphenyl)pyridin-3-yl)-4H-1,2,4-triazole-3-carboxamide] | > 10000 nM
16 | CCOc1ccc(C)c(-c2cncc(NC(=O)c3nnc(Cc4ccccc4)[nH]3)c2)c1 [Example 197, 5-benzyl-N-(5-(5-ethoxy-2-methylphenyl)pyridin-3-yl)-4H-1,2,4-triazole-3-carboxamide] | > 10000 nM
17 | CCCCOc1ccc(C)c(-c2ccnc(NC(=O)c3nnc(Cc4ccccc4)[nH]3)c2)c1 [Example 198, 5-benzyl-N-(4-(5-butoxy-2-methylphenyl)pyridin-2-yl)-4H-1,2,4-triazole-3-carboxamide] | 100 to 1000 nM
18 | Cc1ccc(C(C)(C)O)cc1-c1ccnc(NC(=O)c2nnc(Cc3ccccc3)[nH]2)c1 [Example 199, 5-benzyl-N-(4-(5-(2-hydroxypropan-2-yl)-2-methylphenyl)pyridin-2-yl)-4H-1,2,4-triazole-3-carboxamide] | 1000 to 10000 nM
19 | Cc1ccc(OCCCC(C)(C)O)cc1-c1ccnc(NC(=O)c2nnc(Cc3cc(F)cc(F)c3)[nH]2)c1 [Example 200, 5-(3,5-difluorobenzyl)-N-(4-(5-((4-hydroxy-4-methylpentyl)oxy)-2-methylphenyl)pyridin-2-yl)-4H-1,2,4-triazole-3-carboxamide] | ≤ 100 nM
20 | Cc1ccc(OCCCC(C)(C)O)cc1-c1ccnc(NC(=O)c2nnc(Cc3ccc(F)cc3F)[nH]2)c1 [Example 201, 5-(2,4-difluorobenzyl)-N-(4-(5-((4-hydroxy-4-methylpentyl)oxy)-2-methylphenyl)pyridin-2-yl)-4H-1,2,4-triazole-3-carboxamide] | ≤ 100 nM
21 | Cc1ccc(OCCCC(C)(C)O)cc1-c1ccnc(NC(=O)c2nnc(Cc3cccc(F)c3F)[nH]2)c1 [Example 202, 5-(2,3-difluorobenzyl)-N-(4-(5-((4-hydroxy-4-methylpentyl)oxy)-2-methylphenyl)pyridin-2-yl)-4H-1,2,4-triazole-3-carboxamide] | ≤ 100 nM
22 | Cc1ccc(OCCCC(C)(C)O)cc1-c1ccnc(NC(=O)c2nnc(Cc3cc(F)ccc3F)[nH]2)c1 [Example 203, 5-(2,5-difluorobenzyl)-N-(4-(5-((4-hydroxy-4-methylpentyl)oxy)-2-methylphenyl)pyridin-2-yl)-4H-1,2,4-triazole-3-carboxamide] | ≤ 100 nM
23 | Cc1ccc(OCCCC(C)(C)O)cc1-c1ccnc(NC(=O)c2nnc(Cc3cc(Cl)ccc3F)[nH]2)c1 [Example 204, 5-(5-chloro-2-fluorobenzyl)-N-(4-(5-((4-hydroxy-4-methylpentyl)oxy)-2-methylphenyl)pyridin-2-yl)-4H-1,2,4-triazole-3-carboxamide] | ≤ 100 nM
24 | Cc1ccc(OCCCC(C)(C)O)cc1-c1ccnc(NC(=O)c2nnc(Cc3cc(F)cc(Cl)c3)[nH]2)c1 [Example 205, 5-(5-chloro-3-fluorobenzyl)-N-(4-(5-((4-hydroxy-4-methylpentyl)oxy)-2-methylphenyl)pyridin-2-yl)-4H-1,2,4-triazole-3-carboxamide] | 100 to 1000 nM
25 | Cc1ccc(OCCCC(C)(C)O)cc1-c1ccnc(NC(=O)c2nnc(Cc3ccc(F)c(Cl)c3)[nH]2)c1 [Example 206, 5-(3-chloro-4-fluorobenzyl)-N-(4-(5-((4-hydroxy-4-methylpentyl)oxy)-2-methylphenyl)pyridin-2-yl)-4H-1,2,4-triazole-3-carboxamide] | 100 to 1000 nM
26 | Cc1cc(F)cc(Cc2nnc(C(=O)Nc3cc(-c4cc(OCCCC(C)(C)O)ccc4C)ccn3)[nH]2)c1 [Example 207, 5-(3-fluoro-5-methylbenzyl)-N-(4-(5-((4-hydroxy-4-methylpentyl)oxy)-2-methylphenyl)pyridin-2-yl)-4H-1,2,4-triazole-3-carboxamide] | 100 to 1000 nM
27 | Cc1cc(Cc2nnc(C(=O)Nc3cc(-c4cc(OCCCC(C)(C)O)ccc4C)ccn3)[nH]2)ccc1F [Example 208, 5-(4-fluoro-3-methylbenzyl)-N-(4-(5-((4-hydroxy-4-methylpentyl)oxy)-2-methylphenyl)pyridin-2-yl)-4H-1,2,4-triazole-3-carboxamide] | 100 to 1000 nM
28 | COc1cc(Cc2nnc(C(=O)Nc3cc(-c4cc(OCCCC(C)(C)O)ccc4C)ccn3)[nH]2)ccc1F [Example 209, 5-(4-fluoro-3-methoxybenzyl)-N-(4-(5-((4-hydroxy-4-methylpentyl)oxy)-2-methylphenyl)pyridin-2-yl)-4H-1,2,4-triazole-3-carboxamide] | 100 to 1000 nM
29 | Cc1ccc(OCCCC(C)(C)O)cc1-c1ccnc(NC(=O)c2nnc(Cc3cccc(C(F)(F)F)c3F)[nH]2)c1 [Example 210, 5-(2-fluoro-3-trifluoromethylbenzyl)-N-(4-(5-((4-hydroxy-4-methylpentyl)oxy)-2-methylphenyl)pyridin-2-yl)-4H-1,2,4-triazole-3-carboxamide] | 100 to 1000 nM
30 | Cc1ccc(OCCCC(C)(C)O)cc1-c1ccnc(NC(=O)c2nnc(Cc3cc(C(F)(F)F)ccc3F)[nH]2)c1 [Example 211, 5-(2-fluoro-5-trifluoromethylbenzyl)-N-(4-(5-((4-hydroxy-4-methylpentyl)oxy)-2-methylphenyl)pyridin-2-yl)-4H-1,2,4-triazole-3-carboxamide] | 100 to 1000 nM
